The data set relates to adult articular cartilage. Description: effect on cartilage of sesamoid bones, release of proteoglycan and COMP fragments. In kind it is cell-based, bovine. Particulars: 10 min treatment at 37° C., undiluted or diluted 1:10, 1:100, 1:1000 with Ringer's solution; compared with Ringer's solution control. As to the method: In an unpublished study, the effects of povidone iodine in non-liposomal form was studied on adult articular cartilage.
Sesamoid bones were dissected within 2-4 h after slaughter from bovine metacarpo-phalangeal joints of adult animals under aseptic conditions. The cartilage from sesamoid bones of a particular animal is uniform with respect to glycosaminoglycan synthesis, glycosaminoglycan content, and proteoglycan composition. Each experimental group consisted of eight sesamoid bones from the same animal. The sesamoid bones were washed in 10 ml cold sterile Ringer's solution for 10 min, incubated respectively in 10 ml of sterile Ringer's solution (control), PVP-iodine, or PVP-iodine dilutions with Ringer's solution (1:10, 1:100, or 1:1000) at 37° C. for 10 min in a humidified atmosphere of 5% CO2 in air, and subsequently washed again for 5×5 min in 10 ml Ringer's solution in each case. […] The culture media of sesamoid bones and extracts of cartilage plugs were used for the quantitative and qualitative characterization of proteoglycans and COMP (cartilage oligomeric matrix protein), because an increased release of fragments of these cartilage matrix constituents equals to a catabolic pathway.

Consider “poly(1-vinyl-2-pyrrolidin-2-one)-iodine complex [PVP-iodine]”, for which the “proteolytic fragmentation of cartilage matrix constituents (proteoglycans, COMP)” value is recorded as “no increased proteolytic fragmentation”.

The values are drawn from patent US7468194B1, “Preparations for the application of anti-inflammatory agents” (Euro-Celtique, S.A., priority 1999, dated 2008).
